These results are taken from patent US20220389061A1, “IMMUNOMODULATORS” (priority 2019, published 2022).

The target in this experiment is T1, PD-1/PD-L1 (Homo sapiens, UniProt Q9NZQ7).
T1 construct: TVMV protease site linker (C); made in house; host or cells: HEK293T cells
Description: PD-1/PD-L1 Homogenous Time-Resolved Fluorescence (HTRF) binding assay. The text has this:
The ability of the compounds of formula (I) to bind to PD-L1 was investigated using a PD-1/PD-L1 Homogenous Time-Resolved Fluorescence (HTRF) binding assay.
The interaction of PD-1 and PD-L1 can be assessed using soluble, purified preparations of the extracellular domains of the two proteins. The PD-1 and PD-L1 protein extracellular domains were expressed as fusion proteins with detection tags, for PD-1, the tag was the Fc portion of Immunoglobulin (PD-1-Ig) and for PD-L1 it was the 6 histidine motif (PD-L1-His). All binding studies were performed in an HTRF assay buffer consisting of dPBS supplemented with 0.1% […] bovine serum albumin and 0.05% (v/v) Tween-20. For the h/PD-L1-His binding assay, inhibitors were pre-incubated with PD-L1-His (10 nM final) for 15 m in 4 μl of assay buffer, followed by addition of PD-1-Ig (20 nM final) in 1 μl of assay buffer and further incubation for 15 m. HTRF detection was achieved using europium crypate-labeled anti-Ig (1 nM final) and allophycocyanin (APC) labeled anti-His (20 nM final). Antibodies were diluted in HTRF detection buffer and 5 μl was dispensed on top of the binding reaction. […] Additional binding assays were established between the human proteins PD-1-Ig/PD-L2-His (20 & 5 nM, respectively) and CD80-His/PD-L1-Ig (100 & 10 nM, respectively). […]
Background: Time-resolved FRET reads energy transfer from a long-lived donor to a nearby acceptor.

[1] abbreviates: PD-L1-His 10 nM pre-incubated with inhibitor, PD-1-Ig 20 nM, read-out: HTRF IC50.

Read-outs that look alike come from different tables or passages of the source. Starred links: 1 amine or outer side, 2 acyl side, 3 side chain; linkers in the order of their positions; H or OH if unused. Positions of bridges follow the written chain, without caps; N, C: chain ends. Non-standard residues stand in square brackets, D forms with d. Residues, ends and D or L forms follow the SMILES beside them. Groups on a side chain read outwards from the residue. *: point of attachment. Trp(1-CH2COOH) = N[C@@H](Cc1cn(CC(=O)O)c2ccccc12)C(=O)O; X66 = O=C([C@H](CCN/C(=N/c1ccccc1)c1ccccc1)N[*:1])[*:2]; X57 = O=C([C@H](CN/C(=N/c1ccccc1)c1ccccc1)N[*:1])[*:2]; X41 = N=C(NCC[C@H](N[*:1])C(=O)[*:2])c1ccccc1; X40 = N=C(NC[C@H](N[*:1])C(=O)[*:2])c1ccccc1; X83 = FC(F)(F)c1cc(N*)cc(C(F)(F)F)c1; X13 = O=[N+]([O-])c1ccc(NC(=S)*)cc1; Hyp = O=C(O)[C@@H]1C[C@@H](O)CN1; X29 = c1ccc(Oc2ccc(N*)cc2)cc1; X36 = c1ccc(Oc2cccc(N*)c2)cc1; X87 = FC(F)(F)c1ccccc1NC(=S)*; NMeNle = CCCC[C@H](NC)C(=O)O; X86 = CCOc1ccc(NC(=S)*)cc1; NMeA = CN[C@@H](C)C(=O)O; Dab = NCC[C@H](N)C(=O)O; Dap = NC[C@H](N)C(=O)O; X21 = S=C(Nc1ccccn1)*; CO = O=C([*:1])[*:2]

T1 sequence (Q9NZQ7 18-239): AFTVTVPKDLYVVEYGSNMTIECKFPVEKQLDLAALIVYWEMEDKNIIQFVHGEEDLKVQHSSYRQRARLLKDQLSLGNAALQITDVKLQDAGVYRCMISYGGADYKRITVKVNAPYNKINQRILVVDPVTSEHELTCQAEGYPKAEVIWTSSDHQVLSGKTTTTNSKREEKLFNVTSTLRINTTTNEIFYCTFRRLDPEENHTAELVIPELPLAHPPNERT

Turning to `CCCC[C@H]1C(=O)N(C)[C@@H](CCCC)C(=O)N[C@@H](CC(C)C)C(=O)N[C@H](C(=O)NCC(N)=O)CSCC(=O)N[C@@H](Cc2ccc(O)cc2)C(=O)N(C)[C@@H](C)C(=O)N[C@@H](CC(N)=O)C(=O)N2CCC[C@H]2C(=O)N[C@@H](CNC(=O)Nc2cc(C(F)(F)F)cc(C(F)(F)F)c2)C(=O)N[C@@H](CC(C)C)C(=O)N2C[C@H](O)C[C@H]2C(=O)N[C@@H](Cc2c[nH]c3ccccc23)C(=O)N[C@@H](CCNC(=O)Nc2cc(C(F)(F)F)cc(C(F)(F)F)c2)C(=O)N[C@@H](Cc2cn(CC(=O)O)c3ccccc23)C(=O)N1C` [Example 1015] ({CH2CO}-Y[NMeA]NP[Dap]([CO-X83])L[Hyp]W[Dab]([CO-X83])[Trp(1-CH2COOH)][NMeNle][NMeNle]LCG-NH2; thioether N-14), the IC50 (in general, the concentration needed to halve the response being measured) under setting [1] came to 274 nM. `CCCC[C@H]1C(=O)N(C)[C@@H](CCCC)C(=O)N[C@@H](CC(C)C)C(=O)N[C@H](C(=O)NCC(N)=O)CSCC(=O)N[C@@H](Cc2ccc(O)cc2)C(=O)N(C)[C@@H](C)C(=O)N[C@@H](CC(N)=O)C(=O)N2CCC[C@H]2C(=O)N[C@@H](CNC(=S)Nc2ccccc2C(F)(F)F)C(=O)N[C@@H](CC(C)C)C(=O)N2C[C@H](O)C[C@H]2C(=O)N[C@@H](Cc2c[nH]c3ccccc23)C(=O)N[C@@H](CCNC(=S)Nc2ccccc2C(F)(F)F)C(=O)N[C@@H](Cc2cn(CC(=O)O)c3ccccc23)C(=O)N1C` [Example 1016] ({CH2CO}-Y[NMeA]NP[Dap](X87)L[Hyp]W[Dab](X87)[Trp(1-CH2COOH)][NMeNle][NMeNle]LCG-NH2; thioether N-14): the half-inhibitory concentration (IC50) under setting [1] is 3 nM. Still for that read-out and setting: the same measure for `CCCC[C@H]1C(=O)N(C)[C@@H](CCCC)C(=O)N[C@@H](CC(C)C)C(=O)N[C@H](C(=O)NCC(N)=O)CSCC(=O)N[C@@H](Cc2ccc(O)cc2)C(=O)N(C)[C@@H](C)C(=O)N[C@@H](CC(N)=O)C(=O)N2CCC[C@H]2C(=O)N[C@@H](CN/C(=N/c2ccccc2)c2ccccc2)C(=O)N[C@@H](CC(C)C)C(=O)N2C[C@H](O)C[C@H]2C(=O)N[C@@H](Cc2c[nH]c3ccccc23)C(=O)N[C@@H](CCN/C(=N/c2ccccc2)c2ccccc2)C(=O)N[C@@H](Cc2cn(CC(=O)O)c3ccccc23)C(=O)N1C` [Example 1017] ({CH2CO}-Y[NMeA]NP[X57]L[Hyp]W[X66][Trp(1-CH2COOH)][NMeNle][NMeNle]LCG-NH2; thioether N-14): 7.5 nM; for `CCCC[C@H]1C(=O)N(C)[C@@H](CCCC)C(=O)N[C@@H](CC(C)C)C(=O)N[C@H](C(=O)NCC(N)=O)CSCC(=O)N[C@@H](Cc2ccc(O)cc2)C(=O)N(C)[C@@H](C)C(=O)N[C@@H](CC(N)=O)C(=O)N2CCC[C@H]2C(=O)N[C@@H](CN/C(=N/c2ccccc2)c2ccccc2)C(=O)N[C@@H](CC(C)C)C(=O)N2C[C@H](O)C[C@H]2C(=O)N[C@@H](Cc2c[nH]c3ccccc23)C(=O)N[C@@H](CCN)C(=O)N[C@@H](Cc2cn(CC(=O)O)c3ccccc23)C(=O)N1C` [Example 1018] ({CH2CO}-Y[NMeA]NP[X57]L[Hyp]W[Dab][Trp(1-CH2COOH)][NMeNle][NMeNle]LCG-NH2; thioether N-14): 9.98 nM; for `CCCC[C@H]1C(=O)N(C)[C@@H](CCCC)C(=O)N[C@@H](CC(C)C)C(=O)N[C@H](C(=O)NCC(N)=O)CSCC(=O)N[C@@H](Cc2ccc(O)cc2)C(=O)N(C)[C@@H](C)C(=O)N[C@@H](CC(N)=O)C(=O)N2CCC[C@H]2C(=O)N[C@@H](CNC(=N)c2ccccc2)C(=O)N[C@@H](CC(C)C)C(=O)N2C[C@H](O)C[C@H]2C(=O)N[C@@H](Cc2c[nH]c3ccccc23)C(=O)N[C@@H](CCNC(=N)c2ccccc2)C(=O)N[C@@H](Cc2cn(CC(=O)O)c3ccccc23)C(=O)N1C` [Example 1019] ({CH2CO}-Y[NMeA]NP[X40]L[Hyp]W[X41][Trp(1-CH2COOH)][NMeNle][NMeNle]LCG-NH2; thioether N-14): 3.4 nM.

For `CCCC[C@H]1C(=O)N(C)[C@@H](CCCC)C(=O)N[C@@H](CC(C)C)C(=O)N[C@H](C(=O)NCC(N)=O)CSCC(=O)N[C@@H](Cc2ccc(O)cc2)C(=O)N(C)[C@@H](C)C(=O)N[C@@H](CC(N)=O)C(=O)N2CCC[C@H]2C(=O)N[C@@H](CNC(=O)Nc2cccc(Oc3ccccc3)c2)C(=O)N[C@@H](CC(C)C)C(=O)N2C[C@H](O)C[C@H]2C(=O)N[C@@H](Cc2c[nH]c3ccccc23)C(=O)N[C@@H](CCNC(=O)Nc2cccc(Oc3ccccc3)c2)C(=O)N[C@@H](Cc2cn(CC(=O)O)c3ccccc23)C(=O)N1C` [Example 1020] ({CH2CO}-Y[NMeA]NP[Dap]([CO-X36])L[Hyp]W[Dab]([CO-X36])[Trp(1-CH2COOH)][NMeNle][NMeNle]LCG-NH2; thioether N-14), under setting [1], the half-maximal inhibitory concentration (IC50) came out at 24 nM.

Consider `CCCC[C@H]1C(=O)N(C)[C@@H](CCCC)C(=O)N[C@@H](CC(C)C)C(=O)N[C@H](C(=O)NCC(N)=O)CSCC(=O)N[C@@H](Cc2ccc(O)cc2)C(=O)N(C)[C@@H](C)C(=O)N[C@@H](CC(N)=O)C(=O)N2CCC[C@H]2C(=O)N[C@@H](CNC(=S)Nc2ccccn2)C(=O)N[C@@H](CC(C)C)C(=O)N2C[C@H](O)C[C@H]2C(=O)N[C@@H](Cc2c[nH]c3ccccc23)C(=O)N[C@@H](CCNC(=S)Nc2ccccn2)C(=O)N[C@@H](Cc2cn(CC(=O)O)c3ccccc23)C(=O)N1C` [Example 1021] ({CH2CO}-Y[NMeA]NP[Dap](X21)L[Hyp]W[Dab](X21)[Trp(1-CH2COOH)][NMeNle][NMeNle]LCG-NH2; thioether N-14), for which the IC50 under setting [1] is 4.2 nM. Regarding `CCCC[C@H]1C(=O)N(C)[C@@H](CCCC)C(=O)N[C@@H](CC(C)C)C(=O)N[C@H](C(=O)NCC(N)=O)CSCC(=O)N[C@@H](Cc2ccc(O)cc2)C(=O)N(C)[C@@H](C)C(=O)N[C@@H](CC(N)=O)C(=O)N2CCC[C@H]2C(=O)N[C@@H](CNC(=O)Nc2ccc(Oc3ccccc3)cc2)C(=O)N[C@@H](CC(C)C)C(=O)N2C[C@H](O)C[C@H]2C(=O)N[C@@H](Cc2c[nH]c3ccccc23)C(=O)N[C@@H](CCNC(=O)Nc2ccc(Oc3ccccc3)cc2)C(=O)N[C@@H](Cc2cn(CC(=O)O)c3ccccc23)C(=O)N1C` [Example 1023] ({CH2CO}-Y[NMeA]NP[Dap]([CO-X29])L[Hyp]W[Dab]([CO-X29])[Trp(1-CH2COOH)][NMeNle][NMeNle]LCG-NH2; thioether N-14), the IC50 under setting [1] worked out at 32 nM. The same measure, in the same setting: the same measure for `CCCC[C@H]1C(=O)N(C)[C@@H](CCCC)C(=O)N[C@@H](CC(C)C)C(=O)N[C@H](C(=O)NCC(N)=O)CSCC(=O)N[C@@H](Cc2ccc(O)cc2)C(=O)N(C)[C@@H](C)C(=O)N[C@@H](CC(N)=O)C(=O)N2CCC[C@H]2C(=O)N[C@@H](CNC(=S)Nc2ccc([N+](=O)[O-])cc2)C(=O)N[C@@H](CC(C)C)C(=O)N2C[C@H](O)C[C@H]2C(=O)N[C@@H](Cc2c[nH]c3ccccc23)C(=O)N[C@@H](CCN)C(=O)N[C@@H](Cc2cn(CC(=O)O)c3ccccc23)C(=O)N1C` [Example 1024] ({CH2CO}-Y[NMeA]NP[Dap](X13)L[Hyp]W[Dab][Trp(1-CH2COOH)][NMeNle][NMeNle]LCG-NH2; thioether N-14): 3.2 nM. Compound `CCCC[C@H]1C(=O)N(C)[C@@H](CCCC)C(=O)N[C@@H](CC(C)C)C(=O)N[C@H](C(=O)NCC(N)=O)CSCC(=O)N[C@@H](Cc2ccc(O)cc2)C(=O)N(C)[C@@H](C)C(=O)N[C@@H](CC(N)=O)C(=O)N2CCC[C@H]2C(=O)N[C@@H](CNC(=S)Nc2ccc([N+](=O)[O-])cc2)C(=O)N[C@@H](CC(C)C)C(=O)N2C[C@H](O)C[C@H]2C(=O)N[C@@H](Cc2c[nH]c3ccccc23)C(=O)N[C@@H](CCNC(=S)Nc2ccc([N+](=O)[O-])cc2)C(=O)N[C@@H](Cc2cn(CC(=O)O)c3ccccc23)C(=O)N1C` [Example 1025] ({CH2CO}-Y[NMeA]NP[Dap](X13)L[Hyp]W[Dab](X13)[Trp(1-CH2COOH)][NMeNle][NMeNle]LCG-NH2; thioether N-14) had an IC50 of 0.8 nM.

With `CCCC[C@H]1C(=O)N(C)[C@@H](CCCC)C(=O)N[C@@H](CC(C)C)C(=O)N[C@H](C(=O)NCC(N)=O)CSCC(=O)N[C@@H](Cc2ccc(O)cc2)C(=O)N(C)[C@@H](C)C(=O)N[C@@H](CC(N)=O)C(=O)N2CCC[C@H]2C(=O)N[C@@H](CNC(=S)Nc2ccc(OCC)cc2)C(=O)N[C@@H](CC(C)C)C(=O)N2C[C@H](O)C[C@H]2C(=O)N[C@@H](Cc2c[nH]c3ccccc23)C(=O)N[C@@H](CCN)C(=O)N[C@@H](Cc2cn(CC(=O)O)c3ccccc23)C(=O)N1C` [Example 1026] ({CH2CO}-Y[NMeA]NP[Dap](X86)L[Hyp]W[Dab][Trp(1-CH2COOH)][NMeNle][NMeNle]LCG-NH2; thioether N-14), under setting [1], the IC50 was 4.3 nM. `CCCC[C@H]1C(=O)N(C)[C@@H](CCCC)C(=O)N[C@@H](CC(C)C)C(=O)N[C@H](C(=O)NCC(N)=O)CSCC(=O)N[C@@H](Cc2ccc(O)cc2)C(=O)N(C)[C@@H](C)C(=O)N[C@@H](CC(N)=O)C(=O)N2CCC[C@H]2C(=O)N[C@@H](CNC(=S)Nc2ccc(OCC)cc2)C(=O)N[C@@H](CC(C)C)C(=O)N2C[C@H](O)C[C@H]2C(=O)N[C@@H](Cc2c[nH]c3ccccc23)C(=O)N[C@@H](CCNC(=S)Nc2ccc(OCC)cc2)C(=O)N[C@@H](Cc2cn(CC(=O)O)c3ccccc23)C(=O)N1C` [Example 1027] ({CH2CO}-Y[NMeA]NP[Dap](X86)L[Hyp]W[Dab](X86)[Trp(1-CH2COOH)][NMeNle][NMeNle]LCG-NH2; thioether N-14): under setting [1], the IC50 worked out at 3.7 nM.
